From US20080089859A1, “ADMINISTRATION OF SLEEP RESTORATIVE AGENTS” (priority 2001, published 2008)
Marks after values point to notes of the source that are not given here.

Columns and labels:
[1] = system: rheumatoid arthritis (Ra) and Psoriatic arthritis (PsA) patients; test: Open-label retrospective chart analysis of patients starting Etanercept, with sleep/fibromyalgia treatment (Example 1); assay type: in vivo, human
Text: The effect of sleep disturbance and/or overt fibromyalgia (FM) on Etanercept (ENBREL®, Immunex) efficacy was monitored in an open-label, retrospective chart analysis of rheumatoid arthritis (Ra) and Psoriatic arthritis (PsA) patients starting Etanercept due to inadequate response to prior disease-modifying and steroid treatment. Sixty six (66) consecutive patients (19 males, 47 Females; 39 positive for rheumatoid factor for rheumatoid arthritis, 13 negative for rheumatoid factor for rheumatoid arthritis, 14 having PsA) were treated at a suburban, referral-based rheumatology clinic. The patients were monitored for swollen/tender joints (joint count, JC), fibromyalgia tender point score, restorative sleep quality, and concomitant medication use, before and after adding Etanercept treatment. Concomitant medication use included prednisone, methotrexate, non-steroidal anti-inflammatory drugs (NSAIDS), azothioprine, sulfasalazine, and hydroxychloroquine.
All patients with overt FM and non-restorative sleep were treated with options for fibromyalgia (FM), including Trazodone, Lorazepam, Clonazepam, Carisoprodol, and/or Pramipexole as needed to decrease FM pain and sleep disturbance as previously reported. (Arthritis & Rheumatology 43:9 A1599 (2000); Arthritis & Rheumatology 42:9 A385 (1999); Arthritis & Rheumatology 41:9 A1359 (1998).)
The patient criteria were as follows: The mean arthritis duration was 9.2±1.3 years. Etanercept use was 14±1.5 months. The average age of the patients was 50.5±4.3 years. Their average initial erythrocyte sedimentation rate (ESR) was 22.0±8.0. Previous DMARDs 2.4±0.3. Their initial Joint Count was as follows: PsA 8.3, Ra-8.1, and Ra+13.2 The disease groups were combined: 20 patients had active FM (aFM). 29 never had FM (no FR).

[2] = system: rheumatoid arthritis (Ra) and Psoriatic arthritis (PsA) patients; test: Study of Example 1 continued to 18 months (Example 2); assay type: in vivo, human
Text: The study of Example 1 was continued to 18 months. […] Fibromyalgia was a surrogate for a lack of deep (e.g., stage IV) restorative sleep.
JC refers to the number of swollen tender joints.

[3] = system: patients with Ankylosing Spondylitis; test: Treatment of patients with Ankylosing Spondylitis; assay type: in vivo, human; details: six patients after lorazepam or pramipexole, off Methotrexate and steroids
Protocol: Six patients with Ankylosing Spondylitis were treated according to the present invention. […] The patients were administered lorazepam 1-2 mg qhs or pramipexole 0.5-3.0 mg qhs.

[4] = system: patient with chronic gout; test: Treatment of a patient with chronic gout and severe synovitis; assay type: in vivo, human; details: one patient; colchicine, hydroxychloroquine and Etanercept added together, before sleep agents
Protocol: Adding colchicine, hydroxychloroquine and Etanercept only allowed them to decrease prednisone to 15 mg qd.

[5] = system: patients with rheumatoid arthritis; details: cited from earlier work

## Etanercept
[1]; No FM patients
  % Change Joint Count: −93.9 ± 1.9%
  % Change Methotrexate Dose: −89.5 ± 8.4%
  % Change Prednisone Dose: −96.3 ± 4.0%
[1]; No FM patients (29), before 8.0
  Δ Pred., prednisone dose after adding Etanercept: 8.0 → 0.3 mg/d
[1]; No FM patients (29), before 19.1
  Δ MTX, methotrexate dose after adding Etanercept: 19.1 → 2.0 mg/wk
[1]; No FM patients (29), before Etanercept 11.6
  Δ Joint Count, value after adding Etanercept: 11.6 → 0.7
[1]; No FM patients, p 0.019 across groups
  Medication Discontinued: Azathioprine/Sulfasalazine/Hydroxychloroquine (patients): 10/11
[1]; No FM patients, p 0.045 across groups
  Medication Discontinued: NSAIDs (patients): 6/7
[1]; aFM (active fibromyalgia) patients (20), before Etanercept 11.5, M-W P 0.066
  Δ Joint Count, value after adding Etanercept: 11.5 → 5.9 *
[1]; aFM patients
  Medication Discontinued: Azathioprine/Sulfasalazine/Hydroxychloroquine (patients): 4/8
  Medication Discontinued: NSAIDs (patients): 1/13
[1]; aFM patients (20), before 10.3, M-W P 0.1
  Δ Pred., prednisone dose after adding Etanercept: 10.3 → 5.9 # mg/d
[1]; aFM patients (20), before 15.0, M-W P 0.002
  Δ MTX, methotrexate dose after adding Etanercept: 15.0 → 13.3 ** mg/wk
[1]; aFM patients, M-W P 0.001
  % Change Joint Count: −47.8 ± 14.%
  % Change Prednisone Dose: −48.5 ± 15.%
[1]; aFM patients, M-W P < 0.001
  % Change Methotrexate Dose: −11.3 ± 4.5%
[1]; iFM (inactive fibromyalgia) patients (17), before Etanercept 10.1
  Δ Joint Count, value after adding Etanercept: 10.1 → 0.5
[1]; iFM patients
  % Change Joint Count: −95.0 ± 1.9%
  % Change Methotrexate Dose: −100. ± 0.0%
  % Change Prednisone Dose: −94.5 ± 3.6%
  Medication Discontinued: Azathioprine/Sulfasalazine/Hydroxychloroquine (patients): 9/9
  Medication Discontinued: NSAIDs (patients): 4/7
[1]; iFM patients (17), before 7.3
  Δ Pred., prednisone dose after adding Etanercept: 7.3 → 0.4 mg/d
[1]; iFM patients (17), before 19.7
  Δ MTX, methotrexate dose after adding Etanercept: 19.7 → 0.0 mg/wk
[2]; 18 months, Active FM (N 6)
  MTX abs (absolute change of methotrexate use): (6) +0.8 mg
[2]; 18 months, Active FM (N 9)
  Pred abs (absolute change of steroid use): (9) −7.15 mg
[2]; 18 months, Active FM (N 10)
  Joint count abs (absolute change): (10) −10.95
[2]; 18 months, Inactive FM (N 9)
  MTX abs (absolute change of methotrexate use): (9) −20.1 mg
[2]; 18 months, Inactive FM (N 13)
  Pred abs (absolute change of steroid use): (13) −7.92 mg
[2]; 18 months, Inactive FM (N 23)
  Joint count abs (absolute change): (23) −8.98
[2]; 18 months, No FM (N 16), p 0.0002 across groups
  MTX abs (absolute change of methotrexate use): (16) −17.5 mg
[2]; 18 months, No FM (N 19), p 0.8649 across groups
  Pred abs (absolute change of steroid use): (19) −7.32 mg
[2]; 18 months, No FM (N 28), p 0.5685 across groups
  Joint count abs (absolute change): (28) −11.54
[2]; patients converted from active FM to inactive FM, 12 months, study entry 9.1
  JC2, number of swollen tender joints, mean: 4.6 # tender joints
[2]; patients converted from active FM to inactive FM, 12 months, study entry 10.5
  Pred2, Pred used, mean: 5.5 mg
[2]; patients converted from active FM to inactive FM, 12 months, study entry 17.5
  MTX2, methotrexate used, mean: 0 mg
[2]; patients converted from active FM to inactive FM, 18 months, study entry 9.1
  JC3, number of swollen tender joints, mean: 0 # tender joints
[2]; patients converted from active FM to inactive FM, 18 months, study entry 10.5
  Pred3, Pred used, mean: 1.8 mg
[2]; patients converted from active FM to inactive FM, 18 months, study entry 17.5
  MTX3, methotrexate used, mean: 0 mg
[3]
  Disease activity under continued Etanercept: without evidence of active disease
[4]
  Prednisone dose reached: 15 mg qd
[5]
  Patients who may not respond: 15-20%
